{"source": "patent US20240208908A1", "about": "“CRYSTAL FORM OF PYRIDINE NITROGEN OXIDE COMPOUND AND USE THEREOF” (SHANGHAI JEMINCARE PHARMACEUTICAL CO., LTD, priority 2021, published 2024)", "key": {"NaV1.8": {"biological_target": "T1, NaV1.8 (Homo sapiens, UniProt Q9Y5Y9)", "T1 construct": "expressed in transfected cells", "T1 sequence (Q9Y5Y9 whole entry)": "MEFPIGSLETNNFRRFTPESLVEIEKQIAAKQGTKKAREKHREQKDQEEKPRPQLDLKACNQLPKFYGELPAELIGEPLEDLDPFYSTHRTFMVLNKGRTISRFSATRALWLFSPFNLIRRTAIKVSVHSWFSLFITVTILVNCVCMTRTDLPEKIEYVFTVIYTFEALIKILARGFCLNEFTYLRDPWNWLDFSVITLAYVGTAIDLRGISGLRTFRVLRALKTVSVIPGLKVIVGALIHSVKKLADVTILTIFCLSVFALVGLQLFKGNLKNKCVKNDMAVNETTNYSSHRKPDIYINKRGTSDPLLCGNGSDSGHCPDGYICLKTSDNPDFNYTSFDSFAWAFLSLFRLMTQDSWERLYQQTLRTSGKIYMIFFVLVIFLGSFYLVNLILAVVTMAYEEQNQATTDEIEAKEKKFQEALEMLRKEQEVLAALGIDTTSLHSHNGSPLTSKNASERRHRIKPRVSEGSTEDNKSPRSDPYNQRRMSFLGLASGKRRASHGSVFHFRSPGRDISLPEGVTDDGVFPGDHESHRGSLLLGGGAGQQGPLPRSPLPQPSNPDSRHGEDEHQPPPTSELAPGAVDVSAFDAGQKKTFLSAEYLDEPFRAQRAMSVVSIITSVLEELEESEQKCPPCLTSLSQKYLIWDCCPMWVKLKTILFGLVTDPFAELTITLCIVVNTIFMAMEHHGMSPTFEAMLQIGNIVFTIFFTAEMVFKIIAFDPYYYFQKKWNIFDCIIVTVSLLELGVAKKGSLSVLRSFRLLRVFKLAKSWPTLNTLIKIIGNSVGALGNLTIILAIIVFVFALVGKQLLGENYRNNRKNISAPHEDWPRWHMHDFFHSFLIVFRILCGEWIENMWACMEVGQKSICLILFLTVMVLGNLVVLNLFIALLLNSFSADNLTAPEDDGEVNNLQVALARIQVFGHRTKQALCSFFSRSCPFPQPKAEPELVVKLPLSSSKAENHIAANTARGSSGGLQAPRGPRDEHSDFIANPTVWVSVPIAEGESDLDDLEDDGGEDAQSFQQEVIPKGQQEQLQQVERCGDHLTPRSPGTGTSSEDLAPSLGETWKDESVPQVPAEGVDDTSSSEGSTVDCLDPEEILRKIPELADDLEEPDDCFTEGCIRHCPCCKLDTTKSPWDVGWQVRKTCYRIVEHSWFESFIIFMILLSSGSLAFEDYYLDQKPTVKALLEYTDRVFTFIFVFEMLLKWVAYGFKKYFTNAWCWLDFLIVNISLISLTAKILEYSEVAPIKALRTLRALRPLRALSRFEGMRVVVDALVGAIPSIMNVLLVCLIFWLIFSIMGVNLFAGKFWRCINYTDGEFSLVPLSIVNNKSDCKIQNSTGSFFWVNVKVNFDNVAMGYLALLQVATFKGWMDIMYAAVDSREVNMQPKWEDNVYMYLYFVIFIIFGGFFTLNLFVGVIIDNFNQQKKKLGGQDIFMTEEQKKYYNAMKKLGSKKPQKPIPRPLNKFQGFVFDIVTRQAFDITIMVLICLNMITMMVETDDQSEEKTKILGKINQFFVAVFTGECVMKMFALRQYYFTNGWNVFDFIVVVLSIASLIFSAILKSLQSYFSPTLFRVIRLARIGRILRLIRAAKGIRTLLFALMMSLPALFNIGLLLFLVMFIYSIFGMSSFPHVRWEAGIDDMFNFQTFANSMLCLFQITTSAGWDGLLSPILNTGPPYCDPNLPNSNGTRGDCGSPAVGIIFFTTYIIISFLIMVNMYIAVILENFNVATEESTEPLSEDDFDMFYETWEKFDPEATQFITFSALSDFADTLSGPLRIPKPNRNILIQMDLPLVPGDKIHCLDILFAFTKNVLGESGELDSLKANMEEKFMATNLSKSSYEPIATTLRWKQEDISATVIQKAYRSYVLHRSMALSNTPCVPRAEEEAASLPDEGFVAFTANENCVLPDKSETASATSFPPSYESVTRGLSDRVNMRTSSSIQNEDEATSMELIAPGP", "assay": "Whole-cell patch-clamp, blocking activity on NaV1.8 channel current (CHO cell line stably expressing NaV1.8)", "type": "cell-based", "conditions": "statement in words", "description": "• 1. Test method: the patch-clamp technique was used to detect the effects of compound on the voltage-gated sodium channels (NaV) 1.1 to 1.8 subtype currents\n• 1) the specific information of CHO cell line stably expressing NaV1.8 channel was as follows: SCN10A: NM_006514 • 2) Cells were cultured in HAM'S/F-12 medium containing 10% fetal bovine serum, 10 μg/mL Blasticidin, 200 μg/mL Hygromycin B and 100 μg/mL Zeocin at 37° C. and 5% carbon dioxide concentration. • 3) Cell passage: the old medium was removed and washed once with PBS, and then 1 mL of 0.25%-Trypsin-EDTA solution was added and incubated at 37° C. for 1.5 minutes. When the cells were detached from the bottom of the plate, 5 mL of 37° C. prewarmed complete medium was added. […]\nDouble-pulse mode was performed by two 0 mV depolarization test pulses (TP1 and TP2) for 50 ms. […] Data acquisition was repeated at 20 s intervals and the current peaks at two test pulses were measured.\nWhile the NaV channel current recorded in the whole cell was stable, the drug was administered, and each drug concentration was applied for 5 minutes (or the current is stabilized) and then the next concentration was detected; each test compound was detected at multiple concentrations. […] The current detected by each cell in the external fluid without the compounds was used as its own control group. Multiple cells were detected independently and repeatedly. […]"}, "[1]": {"assay": "Pharmacokinetics in rats, single intravenous injection or intragastric administration", "type": "in vivo, male Sprague Dawley rats", "description": "In this experimental embodiment, in vivo pharmacokinetic evaluation was evaluated in rats by single intravenous injection or intragastric oral administration.\nExperimental methods and conditions: male Sprague Dawley rats; all animals were fasted overnight, and were given a single dose of the compound to be tested at 1 mg/kg (intravenous injection, solvent 5% DMSO/10% Solutol/85% Saline) and 10 mg/kg (intragastric administration) respectively, at 5 min, 15 min, 30 min, 1 hr, 2 hr, 4 hr, 6 hr, 8 hr and 24 h after drug administration, blood was collected from the submandibular vein, about 0.20 mL per sample was collected, heparin sodium was used for anticoagulation, and then it was placed on ice after collection and centrifuged within 1 hour to separate the plasma for testing. The concentration of the drug in the plasma was measured by liquid tandem mass spectrometry (LC/MS/MS), and the measured concentration was used to calculate pharmacokinetic parameters."}, "[2]": {"assay": "Suspension competition test of crystal forms", "type": "physicochemical", "description": "In order to further study the transformation relationship between the free anhydrous crystal form and the hydrate crystal form, a suspension competition test was carried out on the anhydrous crystal form B/G and the hydrate crystal form A. Firstly, the suspension competition test between […] B and G was set up at 5° C., room temperature and 50° C. in ACN and room temperature in EtOAc. The specific steps are as follows: 1) saturated solution of the free state was prepared in different solvent systems at corresponding temperatures; 2) the corresponding free crystal form sample was added into 0.5 mL of the saturated solution to form a suspension; 3) the mixture was magnetically stirred under corresponding temperature conditions; 4) after stirring for 1 to 5 days, the solid was separated for XRPD testing.\nTherefore, a suspension competition test of stable anhydrous crystal form B at room temperature and hydrate form A with different water activities (aw=0/0.2/0.4/0.6/0.8/1.0) of ACN/H2O at room temperature was set up. […] Reference source not found."}, "[3]": {"assay": "Solid-state stability experiment (XRPD, HPLC)", "type": "physicochemical", "conditions": "for Crystal form variation: XRPD", "description": "The stability test in the high-performance liquid chromatography (IPLC) test used in the present disclosure is tested by an Agilent 1260 high-performance liquid chromatograph, and the analytical conditions are shown in Table 11.\nIn order to evaluate the solid stability of the free anhydrous crystal form B, an appropriate amount of the sample was respectively weighed, placed at 60° C. for 24 hours, and exposed at 25° C./60% RH and 40° C./75[…] for one week. The crystal changes of the solid samples placed under different conditions were tested by XRPD, and the chemical stability was evaluated by HPLC."}, "[4]": {"conditions": "25° C./60% RH/exposure, one week"}, "[5]": {"conditions": "40° C./75% RH/exposure, one week"}, "[6]": {"conditions": "statement in words, all test conditions"}}}
{"smiles": "O=C(Nc1ccc[n+]([O-])c1)c1cc(Cl)c(Cl)cc1Oc1ccc(OC(F)(F)F)cc1", "note": "[Compound of formula (I)]", "values": [{"measurement": "blocking effect on NaV1.8 channel activity", "setting": "NaV1.8", "result": "obvious blocking effect"}, {"measurement": "F", "setting": "[1]; rat, intragastric 10 mg/kg", "result": 72.59, "unit": "%"}, {"measurement": "pharmacokinetic absorption in rats", "setting": "[1]; statement in words", "result": "good pharmacokinetic absorption"}]}
{"smiles": "O=C(Nc1ccc[n+]([O-])c1)c1cc(Cl)c(Cl)cc1Oc1ccc(OC(F)(F)F)cc1", "note": "[Crystal form A/B]", "values": [{"measurement": "crystal form obtained in suspension competition", "setting": "[2]; ACN/H2O, room temperature, aw=0 to 0.4", "result": "anhydrous crystal form B was obtained"}, {"measurement": "crystal form obtained in suspension competition", "setting": "[2]; ACN/H2O, room temperature, aw=0.6 to 1 (pure water)", "result": "hydrate crystal form A was obtained"}, {"measurement": "Competition test result (crystal form obtained)", "setting": "[2]; test 22-A1, ACN (aw to 0), room temperature", "result": "Free crystal form B"}, {"measurement": "Competition test result (crystal form obtained)", "setting": "[2]; test 22-A2, ACN/H2O (981:19, aw to 0.2), room temperature", "result": "Free crystal form B"}, {"measurement": "Competition test result (crystal form obtained)", "setting": "[2]; test 22-A3, ACN/H2O (957:43, aw to 0.4), room temperature", "result": "Free crystal form B"}, {"measurement": "Competition test result (crystal form obtained)", "setting": "[2]; test 22-A4, ACN/H2O (924:76, aw to 0.6), room temperature", "result": "Free crystal form B"}, {"measurement": "Competition test result (crystal form obtained)", "setting": "[2]; test 22-A5, ACN/H2O (87:13, aw to 0.8), room temperature", "result": "Free crystal form B"}, {"measurement": "Competition test result (crystal form obtained)", "setting": "[2]; test 22-A6, H2O (aw to 1.0), room temperature", "result": "Free crystal form B"}]}
{"smiles": "O=C(Nc1ccc[n+]([O-])c1)c1cc(Cl)c(Cl)cc1Oc1ccc(OC(F)(F)F)cc1", "note": "[Crystal form B/G]", "values": [{"measurement": "crystal form obtained in suspension competition", "setting": "[2]; ACN at 5° C., room temperature, 50° C. and EtOAc at room temperature", "result": "only the free crystal form B was obtained"}, {"measurement": "Competition test result (crystal form obtained)", "setting": "[2]; test 22-B1, ACN (aw to 0), 5° C.", "result": "Free crystal form B"}, {"measurement": "Competition test result (crystal form obtained)", "setting": "[2]; test 22-B2, ACN (aw to 0), room temperature", "result": "Free crystal form B"}, {"measurement": "Competition test result (crystal form obtained)", "setting": "[2]; test 22-B3, ACN (aw to 0), 50° C.", "result": "Free crystal form B"}, {"measurement": "Competition test result (crystal form obtained)", "setting": "[2]; test 22-B4, EtOAc (aw to 0), room temperature", "result": "Free crystal form B"}]}
{"smiles": "O=C(Nc1ccc[n+]([O-])c1)c1cc(Cl)c(Cl)cc1Oc1ccc(OC(F)(F)F)cc1", "note": "[Free crystal form B]", "values": [{"measurement": "stability and druggability compared with hydrate crystal form", "setting": "[2]; conclusion in words", "result": "better stability"}, {"measurement": "Purity", "setting": "[3]; [4]", "result": 99.90, "unit": "area %"}, {"measurement": "Relative to initial purity", "setting": "[3]; [4]", "result": 99.99, "unit": "%"}, {"measurement": "Crystal form variation", "setting": "[3]; [4]", "result": "Constant"}, {"measurement": "Purity", "setting": "[3]; [5]", "result": 99.90, "unit": "area %"}, {"measurement": "Relative to initial purity", "setting": "[3]; [5]", "result": 99.99, "unit": "%"}, {"measurement": "Crystal form variation", "setting": "[3]; [5]", "result": "Constant"}, {"measurement": "Purity", "setting": "[3]; 60° C./closed, 24 hours", "result": 99.91, "unit": "area %"}, {"measurement": "Relative to initial purity", "setting": "[3]; 60° C./closed, 24 hours", "result": 100.00, "unit": "%"}, {"measurement": "Crystal form variation", "setting": "[3]; 60° C./closed, 24 hours", "result": "Constant"}, {"measurement": "Purity", "setting": "[3]; Start", "result": 99.91, "unit": "area %"}, {"measurement": "HPLC purity under the test conditions", "setting": "[3]; [6]", "result": "not decreased obviously"}, {"measurement": "crystal form change under the test conditions", "setting": "[3]; [6]", "result": "not changed"}]}
